Laboratory results as given in US20040171489A1, “Synergistic active compound combinations for controlling harmful plants” (priority 1998, published 2004).

What was measured:
winter wheat [1] = assay: Example 10 pre-emergence application, fall: crop damage; type: in vivo, Triticum aestivum; conditions: 169 days after application
Excerpt: (§1) Seeds or rhizome pieces of monocotyledonous and dicotyledonous weed plants are placed in sandy loam soil in pots and covered with soil. The compositions, formulated in the form of concentrated aqueous solutions, wettable powders or emulsion concentrates, are then applied to the surface of the soil cover as aqueous solution, suspension or emulsion at an application rate of 600 to 800 l of water/ha (converted), in various dosages. After the treatment, the pots are placed in a greenhouse and kept under good growth conditions for the weeds. After the test plants have emerged, the damage to the plants or the negative effects on the emergence is scored visually after a test period of 3 to 4 weeks by comparison with untreated controls. As shown by the test results, the compositions according to the invention have good herbicidal pre-emergence activity against a broad spectrum of weed grasses and broad-leaved weeds.
(§2) The herbicidal efficacy of the active compounds or active compound mixtures was scored visually using the treated plots in comparison to untreated control plots. The damage and development of all above-ground parts of the plants were recorded. Scoring was carried out using a percentage scale (100% effect=all plants killed; 50% effect=50% of the plants and the green parts of the plants killed; 0% effect=no noticeable effect=like control plot. The scores of in each case 4 plots were averaged.
(§3) If the observed activity values already exceed the formal sum of the values for the trials with the individual applications, they also exceed the expected value according to Colby which is calculated using the following formula and which is likewise considered to be an indication of synergism (cf. S. R. Colby; in Weeds 15 (1967) p. 20 to 22):
(§4) Crop plants were grown outdoors on plots under natural outdoor conditions, and seeds or rhizome pieces of typical harmful plants were laid out or the natural weed growth was utilized. Treatment with the compositions according to the invention was carried out after the harmful plants had emerged and the crop plants were, generally, at the 2- to 4-leaf stage; in some cases (as stated), application of individual active compounds or active compound combinations was carried out pre-emergence (cf. Section 1) or post-emergence (cf. Section 2) or as a sequential treatment partly pre-emergence and/or post-emergence. After the application, for example 2, 4, 6 and 8 weeks after the application, the effect of the preparations was scored visually by comparison with untreated controls (cf. scoring in Section 1). In the field trial as well, the compositions according to the invention have synergistic herbicidal activity against a broad spectrum of economically important weed grasses and broad-leaved weeds. […] Moreover, the effects in essential phases of the scoring period were above the expected values according to Colby, also indicating synergism. In contrast, the crop plants were, as a consequence of the treatments with the herbicidal compositions, damaged only to a small degree, if at all.

winter wheat [2] = assay: Example 16 field trial, post-emergence, 2- to 3-leaf stage: crop damage; type: in vivo, Triticum aestivum; conditions: 50 g of ai/ha; 69 days after application
Experimental: as §2, §3
(§5) Crop plants were grown outdoors on plots under natural outdoor conditions, and seeds or rhizome pieces of typical harmful plants were laid out or the natural weed growth was utilized. […] After the application, for example 2, 4, 6 and 8 weeks after the application, the effect of the preparations was scored visually by comparison with untreated controls (cf. scoring in Section 1). […]

Zea mays (corn) [3] = assay: Example 17 field trial, pre-emergence: crop damage; type: in vivo; conditions: 16 days after application
Excerpt: as §1
The herbicidal efficacy of the active compounds or active compound mixtures was scored visually using the treated plots in comparison to untreated control plots. The damage and development of all above-ground parts of the plants were recorded. […]
as §3, §5

winter wheat [4] = assay: Example 12 field trial, 2- to 4-leaf stage: crop damage; type: in vivo, Triticum aestivum; conditions: 42 days after application
Experimental: as §2, §3, §4

winter wheat [5] = assay: Example 15 field trial, 2- to 4-leaf stage: crop damage; type: in vivo, Triticum aestivum; conditions: 28 days after application
Experimental: as §2, §3, §4

Pharbitis purpurea = assay: Example 21 field trial, 4-leaf stage: herbicidal effect; type: in vivo; conditions: 42 days after application
Experimental: as §2, §3
as §4, with “In contrast, the crop plants were, as a consequence of the treatments with the herbicidal compositions, damaged only to a small degree, if at all.” left out

Oryza sativa (rice) = assay: Example 20 field trial, 3-leaf stage: crop damage; type: in vivo; conditions: 31 days after application
Experimental: as §2, §3, §4

Setaria viridis = assay: Example 19 field trial, 4 to 5-leaf stage: herbicidal effect; type: in vivo; conditions: 100 g of ai/ha; 31 days after application
Experimental: as §2, §3, §5

Echinochloa crus-galli = assay: as above; type: in vivo; conditions: 100 g of ai/ha; 31 days after application
Experimental: as §2, §3, §5

Zea mays (corn) [6] = assay: Example 19 field trial, 4 to 5-leaf stage: crop damage; type: in vivo; conditions: 100 g of ai/ha; 31 days after application
Experimental: as §2, §3, §5

summer wheat = assay: Example 13 field trial, 2- to 4-leaf stage: crop damage; type: in vivo, Triticum aestivum; conditions: 17 days after application
Experimental: as §2, §3, §4

winter barley = assay: Example 16 field trial, post-emergence, 2- to 3-leaf stage: crop damage; type: in vivo, Hordeum vulgare; conditions: 50 g of ai/ha; 69 days after application
Experimental: as §2, §3, §5

Lamium purpurea = assay: Example 12 field trial, 2- to 4-leaf stage: herbicidal effect; type: in vivo; conditions: 42 days after application
Experimental: as §2, §3, §4

winter wheat [7] = assay: Example 9 field trials, application 1-3 leaf stage broad-leaved weeds: crop damage; type: in vivo, Triticum aestivum; conditions: 100 g of ai/ha; 120 to 160 days after application
Experimental: as §2, §3
as §4, with “In contrast, the crop plants were, as a consequence of the treatments with the herbicidal compositions, damaged only to a small degree, if at all.” left out

Matricaria chamomilla = assay: Example 14 field trial, 2- to 4-leaf stage: herbicidal effect; type: in vivo; conditions: 28 days after application
Experimental: as §2, §3, §4

## CC(C)(F)c1nc(N)nc(NC(CCc2ccccc2)C2CCC2)n1 (stereo not drawn) [(A1), 4-amino-6-(1-fluoro-1-methylethyl)-2-(3-phenyl-1-cyclobutylpropylamino)-1,3,5-triazine]
Winter wheat [1]; 50 g of ai/ha
  damage, TRZAW: 1%
Winter wheat [1]; 100 g of ai/ha
  damage, TRZAW: 2%
Winter wheat [2]
  herbicidal effect (%), TRZAW (crop): 0%
Zea mays (corn) [3]; 50 g of ai/ha
  damage, ZEAMA: 0%
Zea mays (corn) [3]; 100 g of ai/ha
  damage, ZEAMA: 0%
Winter wheat [4]; 12.5 g of ai/ha
  damage, TRZAW: 0%
Winter wheat [4]; 25 g of ai/ha
  damage, TRZAW: 0%
Winter wheat [4]; 50 g of ai/ha
  damage, TRZAW: 0%
Winter wheat [5]; 25 g of ai/ha
  damage, TRZAW: 0%
Winter wheat [5]; 50 g of ai/ha
  damage, TRZAW: 2%
Winter wheat [5]; 100 g of ai/ha
  damage, TRZAW: 2%
Pharbitis purpurea; 25 g of ai/ha
  herbicidal effect, PHBPU: 90%
Pharbitis purpurea; 50 g of ai/ha
  herbicidal effect, PHBPU: 95%
Pharbitis purpurea; 100 g of ai/ha
  herbicidal effect, PHBPU: 97%
Oryza sativa (rice); 25 g of ai/ha
  damage, ORYSA: 0%
Oryza sativa (rice); 50 g of ai/ha
  damage, ORYSA: 0%
Oryza sativa (rice); 100 g of ai/ha
  damage, ORYSA: 0%
Setaria viridis
  herbicidal effect, SETVI: 0%
Echinochloa crus-galli
  herbicidal effect, ECHCG: 0%
Zea mays (corn) [6]
  damage, ZEAMA: 0%
Summer wheat; 62.5 g of ai/ha
  damage, TRZAS: 5%
Summer wheat; 125 g of ai/ha
  damage, TRZAS: 13%
Winter barley
  herbicidal effect (%), HORVW (crop): 0%
Lamium purpurea; 12.5 g of ai/ha
  herbicidal effect, LAMPU: 25%
Lamium purpurea; 25 g of ai/ha
  herbicidal effect, LAMPU: 65%
Lamium purpurea; 50 g of ai/ha
  herbicidal effect, LAMPU: 70%
Winter wheat [7]
  damage, TRZAW: 0%
Matricaria chamomilla; 25 g of ai/ha
  herbicidal effect, MATCH: 43%
Matricaria chamomilla; 50 g of ai/ha
  herbicidal effect, MATCH: 58%
Matricaria chamomilla; 100 g of ai/ha
  herbicidal effect, MATCH: 73%
